# In PubChem BioAssay (NCI):
#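 Abbreviation: GI50, concentration required for 50% inhibition of growth. TGI: concentration producing complete growth inhibition.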
# Legend:
# Experiment in all cases: DTP human tumour cell line panel, 384-well format
# A498 renal = system: A498 renal
# ACHN renal = system: ACHN renal
# BT-549 breast = system: BT-549 breast
# HCC-2998 colon = system: HCC-2998 colon
# HS 578T breast = system: HS 578T breast
# KM12 colon = system: KM12 colon
# M14 melanoma = system: M14 melanoma
# MDA-MB-468 breast = system: MDA-MB-468 breast
# NCI-H522 lung = system: NCI-H522 lung
# OVCAR-3 ovarian = system: OVCAR-3 ovarian
# SK-MEL-5 melanoma = system: SK-MEL-5 melanoma
# SW-620 colon = system: SW-620 colon
# T-47D breast = system: T-47D breast
structure (smiles),measurement,setting,value
CCNC(=O)c1cc2c(-c3cc(C(C)(C)O)ccc3Oc3c(C)cc(F)cc3C)cn(C)c(=O)c2[nH]1,GI50,A498 renal,1870 nM
same,TGI,A498 renal,13000 nM
same,GI50,ACHN renal,3230 nM
same,TGI,ACHN renal,15100 nM
same,GI50,BT-549 breast,298 nM
same,TGI,BT-549 breast,1920 nM
same,GI50,HCC-2998 colon,542 nM
same,TGI,HCC-2998 colon,2030 nM
same,GI50,HS 578T breast,125 nM
same,TGI,HS 578T breast,2020 nM
same,GI50,KM12 colon,1420 nM
same,TGI,KM12 colon,11200 nM
same,GI50,M14 melanoma,1590 nM
same,TGI,M14 melanoma,16900 nM
same,GI50,MDA-MB-468 breast,358 nM
same,TGI,MDA-MB-468 breast,2080 nM
same,GI50,NCI-H522 lung,17.6 nM
same,TGI,NCI-H522 lung,933 nM
same,GI50,OVCAR-3 ovarian,602 nM
same,TGI,OVCAR-3 ovarian,2460 nM
same,GI50,SK-MEL-5 melanoma,1270 nM
same,TGI,SK-MEL-5 melanoma,3680 nM
same,GI50,SW-620 colon,2970 nM
same,TGI,SW-620 colon,15600 nM
same,GI50,T-47D breast,1310 nM
same,TGI,T-47D breast,8300 nM
